Experimental data from PMC7679387, “VZHE-039, a novel antisickling agent that prevents erythrocyte sickling under both hypoxic and anoxic conditions” (Scientific Reports, 2020).
“And” between values parts separate entries of the source, which are not always exact repeats. Equal entries are not always repeated. “Also recorded” adds a separate entry of the source.

What was measured:
Hb = molecular target: T1, Hb (Homo sapiens, UniProt P69905); assay: Oxygen equilibrium (P50 shift) of lysates from SS cells, Hemox Analyzer; type: cell-based; conditions: 20% hematocrit
T1 construct: whole blood suspensions from subjects with homozygous SCD (Hct of 20%); from tissue; host or cells: whole blood / red blood cells of patients with homozygous SS sickle cell disease; lysate for HPLC and OEC
Description: For our previously studied compounds (e.g., INN-312, TD-7, SAJ-310, INN-298) that incorporate methoxyPy substitution to vanillin analogs, we observed a significant increase in functional and biological activity as a result of increased protein interactions[31],[33],[35],[36]. We therefore expected similar effects for VZHE-039, which we tested by following VZHE-039 activity (measured by Hb adduct formation, P50-shift and RBC sickling inhibition) using SS blood. Briefly, we incubated 0.5, 1, and 2 mM concentrations of VZHE-039 with whole blood suspensions from subjects with homozygous SCD (Hct of 20%) under hypoxic conditions (2.5% O2/97.5% N2) at 37 °C for 2 h for expected peak adduct. Aliquot blood samples were drawn into a fixative (2% glutaraldehyde solution), and sickling was assessed by microscopy[31],[33],[35],[36]. Aliquot samples were also subjected to cation-exchange HPLC analyses to assess the degree of Hb modification to the high-affinity adduct form (Hb adduct formation), as well as standard O2 equilibrium curves (OEC) to assess P50-shifts using hemox analyzer[31],[33],[35],[36]. […] The improved potency of Voxelotor has been attributed to reduced binding stoichiometry, i.e. while Voxelotor binds Hb at a 1:1 ratio, VZHE-039 binds Hb at a 2:1 ratio. […] This observation, as will be discussed later is likely due to a meaningful contribution from the novel O2-independent antisickling activity as result of the strong contact with the αF-helix.
The effect of VZHE-039 on RBC sickling, Hb modification, and Hb oxygen equilibrium was studied utilizing samples from consented individuals with homozygous SCD following previous procedure. Briefly, blood suspended in Hemox buffer and supplemented with glucose and bovine serum albumin, to a final hematocrit of 20% were incubated under air in the absence or presence of 0.5 mM, 1 mM and 2 mM VZHE-039 at 37 °C for 1 h. This was followed by incubating the suspensions under hypoxic conditions (2.5% O2/97.5% N2) at 37 °C for 2 h. Aliquot samples were obtained and fixed with 2% glutaraldehyde solution without exposure to air, and then subjected to microscopic morphological analysis of bright field images (at × 40 magnification) of single layer cells on an Olympus BX40 microscope fitted with an Infinity 2 camera (Olympus), and the coupled Image Capture software. Leftover samples were washed in phosphate-buffer saline, and hemolyzed in hypotonic lysis buffer for subsequent Hb-modification and oxygen equilibrium analyses.
For the oxygen equilibrium studies, 100 μL aliquot samples from the above clarified lysate were added to 4 mL of 0.1 M potassium phosphate buffer, pH 7.0, in cuvettes and subjected to hemoximetry analysis using a Hemox Analyzer (TCS Scientific Corp.) to determine the P50 values.

SS cells = assay: Antisickling activity under anoxia (100% N2); type: cell-based, human; conditions: 2 mM, 100% N2 gas, 30 min
Excerpt: Therefore, another objective in the targeted design of VZHE-039 was to complement its O2-dependent antisickling activity—common to this class of aromatic aldehydes—with an improved O2-independent antisickling activity through proximity-enhanced auxiliary interactions with the αF-helix. Findings from the VZHE-039 crystallographic studies indicate that we achieved the structural objective of enhanced interactions between the methylhydroxy substituent and the αF-helix. We further asked whether these enhanced interactions would translate to an improvement in the O2-independent antisickling activity—as hypothesized. We therefore explored the potential O2-independent activity of VZHE-039, by testing its antisickling properties under complete deoxygenated/anoxic conditions (i.e., 100% N2). […] For internal control purposes, aliquots from samples used for testing for antisickling studies at 2.5% O2 (see above) were also used for testing the antisickling effect of these compounds under 100% N2 gas, therefore, helping elucidate the antisickling effects due to O2-dependent activity of the compounds. Since this experimental design utilized aliquots of the same samples under different gas conditions, it ensured that the assay was free of any potential errors associated with variability in hematocrit and accuracy in drug concentrations.
We conducted two studies to test the antisickling property of VZHE-039 under anoxia to establish the secondary mechanism of action. In the first study, we conducted antisickling studies as described above and also previously reported (2.5% O2)[33], using 2 mM concentrations of VZHE-039, and the controls vanillin, TD-7 and Voxelotor. After 1 h, aliquot samples were fixed with 2% glutaraldehyde without exposure to air. Then the incubation chamber was opened and exposed to air for 15 min to ensure complete re-oxygenation and reversal of the sickled cells to normal round cells. Reversal was confirmed by microscopy. The incubation chamber was then closed, and the assay was repeated under 100% nitrogen gas for 30 min, at which point aliquots were obtained and fixed. Aliquot samples were then subjected to microscopic morphological analysis of bright field images as previously described. Resulting sickled cells (percentages) were compared across samples, and between aliquots of the same samples that had been obtained either under 2.5% oxygen or 100% nitrogen.

T1 sequence (P69905 2-142): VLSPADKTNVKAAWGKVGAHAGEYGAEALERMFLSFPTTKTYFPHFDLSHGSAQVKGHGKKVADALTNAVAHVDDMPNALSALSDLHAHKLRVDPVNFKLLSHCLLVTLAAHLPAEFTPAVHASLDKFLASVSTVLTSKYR
T1 sequence (P68871 with tags, fused parts or gaps E7V partner): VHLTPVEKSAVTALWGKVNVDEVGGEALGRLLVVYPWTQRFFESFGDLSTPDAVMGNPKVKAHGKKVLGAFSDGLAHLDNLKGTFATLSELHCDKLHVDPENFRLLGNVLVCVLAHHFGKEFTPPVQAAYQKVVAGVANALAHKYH

P50 Shift (ΔP50) (Hb; 0.5 mM): 22% and 22.3 ± 8.7% | P50 Shift (ΔP50) (Hb; 1 mM): 47% and 46.6 ± 5.4% | P50 Shift (ΔP50) (Hb; 2 mM): 76% and 75.6 ± 2.5%
SMILES: O=Cc1c(O)cccc1OCc1cccc(CO)n1 [VZHE-039, 2-((6-(Hydroxymethyl)pyridin-2-yl)methoxy)-6-hydroxybenzaldehyde]
Antisickling effect under anoxia (in words) (SS cells): inhibited sickling under complete anoxia; also recorded: identical antisickling effects for VZHE-039 under either hypoxia or anoxia
